The results in this text go back to ChEMBL document CHEMBL1134009, “The discovery of a potent, intracellular, orally bioavailable, long duration inhibitor of human neutrophil elastase--GW311616A a development candidate” (Bioorg Med Chem Lett, 2001).

Data set [1] has as its target T1, Neutrophil elastase (Homo sapiens, UniProt P08246).
T1 sequence (P08246 whole entry): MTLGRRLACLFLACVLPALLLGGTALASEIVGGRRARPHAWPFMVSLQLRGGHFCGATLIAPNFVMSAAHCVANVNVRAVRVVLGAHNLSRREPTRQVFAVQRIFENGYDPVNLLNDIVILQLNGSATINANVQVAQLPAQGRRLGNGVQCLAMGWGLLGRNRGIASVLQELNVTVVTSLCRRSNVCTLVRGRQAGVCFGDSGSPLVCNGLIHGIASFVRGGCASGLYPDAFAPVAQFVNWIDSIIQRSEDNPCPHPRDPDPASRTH
Description: Inhibitory concentration against Elastase.

The species entered for data set [2] is Homo sapiens. The data set can be described thus: Residual elastase activity was evaluated after incubation with human whole blood for 30 min. The settings on record: 0.5 h. It is filed as functional.
Data set [3] relates to Cricetulus griseus. The data set can be described thus: Percent inhibition of intraneutrophil elastase in hamster bronchoalveolar lavage 6 hours after oral administration at a dose of 2.2 mg/kg. It is filed as organism-based. Further details: dose 2.2 mg/kg. As to conditions: Lung.
Data set [4] concerns Cricetulus griseus. Description: Percent inhibition of intraneutrophil elastase in hamster bronchoalveolar lavage 6 hours after oral administration at a dose of 0.73 mg/kg. The format is organism-based. Further details: dose 0.73 mg/kg. The settings on record: Lung.
A short description of data set [5]: Bioavailability in hamster was determined. It is filed as ADME, organism-based, Cricetulus griseus. The settings on record: chinese hamster, in vivo.
Data set [6] is described as follows: Plasma clearance was measured in hamster at the dose of 10 mg/kg by peroral administration. Further details: dose 10 mg/kg, route oral. The settings on record: chinese hamster, po, read-out: Clp. The format is ADME, organism-based, Cricetulus griseus.
Data set [7] concerns Cricetulus griseus. Description: Percent inhibition of intraneutrophil elastase in hamster bronchoalveolar lavage at the dose 20 mg/kg 6 hours after oral administration. The settings on record: Lung. It is filed as organism-based. Further details: dose 20 mg/kg.
A short description of data set [8]: Half life of compound was determined in dog blood. It is filed as ADME, Canis lupus familiaris.
A short description of data set [9]: Half life of compound was determined in human blood. The format is ADME, tissue-based.
Data set [10] has as its system Cricetulus griseus. The data set can be described thus: Percent inhibition of intraneutrophil elastase in hamster bronchoalveolar lavage 6 hours after oral administration at a dose 2.2 mg/kg. The format is organism-based. Also noted: dose 2.2 mg/kg. As to conditions: Lung.
The nature of data set [11]: Half life of compound was determined in hamster blood. It is filed as ADME, tissue-based, Cricetulus griseus. The settings on record: chinese hamster.
Data set [12] can be described thus: Plasma clearance was measured in hamster at the dose of 3 mg/kg by intravenous administration. The format is ADME, organism-based, Cricetulus griseus. Further details: dose 3 mg/kg, route intravenous. The settings on record: chinese hamster, read-out: Clp.
Data set [13] in a line: Half life of compound was determined in rat blood. The format is ADME.
Data set [14] has as its system Cricetulus griseus. The data set can be described thus: Percent inhibition of intraneutrophil elastase in hamster bronchoalveolar lavage 6 hours after oral administration at a dose of 20 mg/kg. The format is organism-based. Also noted: dose 20 mg/kg. As to conditions: Lung.
A short description of data set [15]: Bioavailability in hamster at a dose of 3 mg/kg by […] administration. The format is ADME, organism-based, Cricetulus griseus. The settings on record: chinese hamster, in vivo.
Data set [16] is described as follows: Bioavailability in hamster at a dose of 3 mg/kg by oral administration. The settings on record: chinese hamster, in vivo. It is filed as ADME, organism-based, Cricetulus griseus.

Molecules are shown by their SMILES. Some results are limits rather than exact numbers.

As a reminder, the IC50 is the midpoint of a concentration-inhibition curve. Higher therefore signals a need for much substance. A word on the inhibition: it is the share of the control response that was lost under treatment. Lower therefore signals a response near the control. As for `CC(C)[C@H]1C(=O)N(S(C)(=O)=O)[C@H]2CN(C(=O)/C=C/CN3CCCCC3)CC12` (stereo not given in full), the IC50 in data set [1] worked out at 26 nM; in data set [2] it was 1800 nM. Further, the inhibition in [3] is 77%; in data set [4] it was 33%.

As a reminder, the bioavailability is dose-corrected exposure relative to a reference, in per cent. A high value points to much systemic uptake. As usually defined, the half-life is how long it takes for the measured level to halve. In the case of `CC(C)[C@H]1C(=O)N(S(C)(=O)=O)[C@H]2CN(C(=O)CCN3CCCCC3)C[C@H]12.Cl`, in data set [5], the bioavailability was 70%. Besides, in data set [6], the CL/F was 60 mL/min/kg. Besides, the results for the inhibition in data set [7] and in data set [10] were 88% and 20%, respectively. Also, the half-life is greater than 6 h in data set [8], greater than 6 h in data set [9], greater than 6 h in data set [11] and 3.5 h in data set [13]. Moreover, the IC50 in data set [1] amounted to 242 nM. Further, in [12], the clearance was 60 mL/min/kg.

Regarding `CCC[C@H]1C(=O)N(S(C)(=O)=O)[C@H]2CN(C(=O)CCN3CCCCC3)C[C@H]12.Cl`, the CL/F in data set [6] turned out to be 140 mL/min/kg. Further, the half-life in [8] is 3.5 h; in data set [9], 3.7 h; in data set [11], 1.4 h; in [13], 0.3 h. The inhibition in data set [14] was 75%; in [3], 4%. The same compound registered an IC50 in data set [1] of 120 nM. Also, the bioavailability in data set [15] and in [16] was 49% in each case. Moreover, in data set [12], the clearance stood at 140 mL/min/kg.
